Data taken from patent EP0452507A1, “MEDICINE COMPRISING TOCOPHERYL GLYCOSIDE AS ACTIVE INGREDIENT” (NIPPON HYPOX LABORATORIES INCORPORATED, priority 1989, dated 1991).

How the values were obtained:
[1] = test system: stomach (mucosal ulcer in the glandular portion); assay type: in vivo, rats
Procedure: 15 male SD rats weighing 180 to 220 g were used. These rats were fasted for 24 hours, and separated to three groups each consisting of 5 rats.
Then, one group was used as Control group. A physiological saline solution of 10 % Nikkol was administered intraperitoneally, and the rats were sacrificed with ether 16 hours after the administration. The stomach of each rat was removed, and after 10 ml of physiological saline was injected into the stomachs, the stomachs were fixed by immersing them in a 1 % formalin for 10 minutes. Each stomach was dissected along the greater curvatura, and the length (mm) of mucosal ulcer which occurred in the glandular portion was measured under an anatomical microscope (x 10). The average of the ulcer lengths of the five rats was taken as an ulcer index.
One out of the remaining two groups was used as Example group @. The procedure for Control group was repeated except that a physiological saline solution of 10 % Nikkol containing VIE-MAN in place of the physiological saline solution of 10 % Nikkol was administered intraperitoneally in such a dose that the amount of VIE-MAN was 300 mg/kg, and the ulcer index was determined.
The remaining one group was used as Comparative Example group ⓘ. The procedure for Example group 17 was repeated except that a physiological saline solution of 10 % Nikkol containing indomethacin, which was a nonsteroidal anti-inflammatory preparation (antipyretic analgesic antiphlogistic preparation), in place of the physiological saline solution of 10 % Nikkol was administered intraperitoneally in such a dose that the amount of the indomethacin was 20 mg/kg, and the ulcer index was determined.

[2] = test system: antigen-adjuvant-induced inflammation; experiment: antigen-adjuvant-induced inflammation, right hind paw swelling by volumetry; assay type: in vivo, rats; conditions: for inhibition activity against antigen-adjuvant-induced inflammations / average of the swelling ratios: 10 mg/kg intraperitoneally; for average of the swelling ratios: 0.5 hour after administration of antigen and adjuvant, versus Control group
Procedure: (§1) At first, five groups each consisting of five SD male rats weighing 180 to 220 g (total 25 rats) were prepared, and each rat was measured for a size of the subplantar region of the right hind paw. As an antigen to cause an antigen-adjuvant-induced inflammation, 0.2 mg/rat of egg-white albumin was used. Further, as an immune aid (adjuvant), a mixture consisting of 4 mg/rat of aluminum hydroxide and 0.1 ml/rat of pertussis vaccine was prepared.
One out of the five groups was used as Control group. A physiological saline solution of 10 % Nikkol (trade name, dissolving aid, supplied by Nikko Chemical Co., Ltd.) was administered intraperitoneally to each rat, and 0.5 hour after the administration of the physiological saline solution of 10 % Nikkol, the above antigen and adjuvant were administered intracutaneously into the subplantar region of the right hind paw. Then, 0.5, 1, 2, 4, 6, 12 and 24 hours after the administration of the antigen and adjuvant, the swelling on the subplantar region of the right hind paw of each rat was measured by volumetry. And, the average of swelling ratios of the group in every measurement was determined on the basis of the measurement values of the sizes of subplantar regions of the right hind paws of the rats obtained before the administration of the physiological saline solution of 10 % Nikkol.
One of the remaining four groups was used as Example group @. A physiological saline solution of 10 % Nikkol containing VIE-MAN was administered intraperitoneally into each rat of this group in such a dose that the amount of VIE-MAN was 10 mg/kg, and 0.5 hours after the administration of the physiological saline solution of 10 % Nikkol containing VIE-MAN, the above antigen and adjuvant were administered intracutaneously into the subplantar region of the right hind paw. Thereafter, the swelling on the subplantar region of the right hind paw of each rat was measured in the same manner as that for Control group, and the average of swelling ratios of the group in every measurement was determined.
(§2) The same procedure as that for Example group ⑧ was carried out except that a physiological saline solution of 10 % Nikkol containing hydrocortisone which was an anti-inflammatory preparation (immunosuppressive preparation) in place of the physiological saline solution of 10 % Nikkol containing VIE-MAN was administered intraperitoneally in such a dose that the amount of the hydrocortisone was 10 mg/kg.
as §2, with “diphenhydramine” for “hydrocortisone”, “antihistamine” for “anti-inflammatory”, “preparation” for “preparation (immunosuppressive preparation)”
as §2, with “containing indomethacin” for “containing hydrocortisone”, “was a nonsteroidal” for “was an”, “preparation (antipyretic analgesic antiphlogistic” for “preparation (immunosuppressive”, “the indomethacin” for “the hydrocortisone”
as §1, with “first, four” for “first, five”, “five male” for “five”, “SD” for “SD male”, “(total 20” for “(total 25”, “an antigen- adjuvant-induced” for “an antigen-adjuvant-induced”, “was prepared.” for “was used.”
One out of the four groups was used an Control group, and the procedure for Control group in Example 4 was repeated to determine the average of the swelling ratios as a group unit.

[3] = test system: delayed-type hypersensitivity; experiment: picryl chloride-induced delayed-type hypersensitivity, ear swelling ratio; assay type: in vivo, mice; conditions: for swelling ratio (ear): versus Control group
Procedure: 76 Male mice (C57BU6Ncrj) weighing 18 to 20 g were used. The abdominal portion of each mouse was shaved such that the shaved portion was about 1 cm^2. Thereafter, 20 µl of an ethanol solution of 7 % picryl chloride was applied to the shaved portions for sensitization.
Eighteen out of the 76 mice were used as Control group. A physiological saline solution containing 10 % Nikkol (Nikkol: trade name, dissolving aid, supplied by Nikko Chemical Co., Ltd.) was administered intraperitoneally to the 18 mice for the consecutive 5 days after the sensitization, and ear thickness of each of these 18 mice was measured on the eighth day after the sensitization. Thereafter, 20 µl of an olive oil solution of 1 % picryl chloride was applied to the ear of each of the mice to cause delayed-type hypersensitivity.
The above pharmaceutical solutions were administered intraperitoneally at the above-described doses for the five consecutive days after the sensitization, and ear thickness of each of these mice was measured on the eighth day after the sensitization. Thereafter, 20 µl of an olive oil solution of 1 % picryl chloride was applied to the ear of each of the mice to cause delayed-type hypersensitivity.
24 Hours after the delayed-type hypersensitivity was induced, the swelling of the ear of each of the mice of Control group and Example groups ①, ②and③ was measured with a dial thickness gauge. On the basis of the values of the ear thickness measured before the application of the olive oil solution of 1 % picryl chloride, the swelling ratio of each of Example groups ①, ② and ③ and Control group was determined.
And, the swelling ratio of the mice was determined.
At first, the abdominal portion of each of forty ICR male mice weighing 20 to 25 g was shaved such that the shaved portion was about 1 cm^2. Thereafter, 20 µl of an ethanol solution of 7 % picryl chloride was applied to the shaved portions for sensitization.

[4] = Example 2, Fig. 2, ICR male mice, 100 mg/kg/day intraperitoneally
[5] = Example 2, ICR mice, 100 mg/kg/day intraperitoneally

Cc1c(C)c2c(c(C)c1OC1OC(CO)C(O)C(O)C1O)CCC(C)(CCCC(C)CCCC(C)CCCC(C)C)O2 (racemic) [VIE-GLU, dl-α-tocopheryl-,8-D-glucoside]
side effect on the digestive system ([1]; rat, in vivo): nearly similar results to that of the test on VIE-MAN
inhibition activity against antigen-adjuvant-induced inflammations ([2]; Example 5, Fig. 4, 10 mg/kg): almost as superior as VIE-MAN
average of the swelling ratios ([2]; Example 5, Fig. 4): significantly lower than that of the swelling ratios of Control group
swelling ratio (ear) [3, 4]: significantly lower than that of Control group
side effects such as a reduction in body weight [3, 5]: not observed

COc1ccc2c(c1)c(CC(=O)O)c(C)n2C(=O)c1ccc(Cl)cc1 [indomethacin, reference compound]
ulcer index ([1]; Example 8, Fig. 7, 20 mg/kg intraperitoneally, fasted rats, 16 hours after administration): about 30 mm
inhibition activity against antigen-adjuvant-induced inflammations ([2]; Example 4, Fig. 3): significant inhibition activity at and after 2 hours
inhibition activity against antigen-adjuvant-induced inflammation compared with VIE-MAN ([2]; Example 4, Fig. 3, both 10 mg/kg intraperitoneally): much lower than that of VIE-MAN

Cc1c(C)c2c(c(C)c1OC1OC(CO)C(O)C(O)C1O)CCC(C)(CCCC(C)CCCC(C)CCCC(C)C)O2 (racemic) [VIE-MAN, dl-a-tocopheryl-a-D-mannoside]
mucosal ulcer (ulcer index) ([1]; rat, in vivo, ip, 300 mg/kg): no mucosal ulcer was observed
inhibition activity against antigen-adjuvant-induced inflammations ([2]; Example 4, Fig. 3): excellent inhibition activity
average of the swelling ratios ([2]; Example 4, Fig. 3): significantly lower than that of the swelling ratios of Control group
delayed-type hypersensitivity prevented and cured ([3]; Example 1, Fig. 1, 10, 30 and 100 mg/kg/day intraperitoneally): dose-dependently prevented and cured
swelling ratio (ear) ([3]; Example 1, Fig. 1, C57BU6Ncrj mice, 10, 30 and 100 mg/kg/day intraperitoneally for 5 days after sensitization, 24 hours after induction): significantly lower than that of Control group
preventive and therapeutical effect on delayed-type hypersensitivity (comparison) ([3]; Example 1, Fig. 1, VIE-MAN 10, 30, 100 mg/kg/day versus methotrexate 1 mg/kg/day, intraperitoneally): superior to methotrexate
side effects such as a reduction in body weight ([3]; Example 1, mice, 10, 30 and 100 mg/kg/day intraperitoneally for 5 days): not observed
swelling ratio (ear) [3, 4]: significantly lower than that of Control group
side effects such as a reduction in body weight [3, 5]: not observed
